Assay results taken from patent US20160106439A1, “PNEUMATIC TOURNIQUET” (BIONUMERIK PHARMACEUTICALS, INC., priority 2013, published 2016).

Legend:
[1] = system: human breast, ovarian and lymphoma cancer cell lines; assay: Interference with paclitaxel induced apoptosis (PARP cleavage, Bcl-2 phosphorylation, DNA laddering); assay type: cell-based
Source text: (§1) Tavocept mediates the non-enzymatic xenobiotic modification of sulfur-containing amino acid residues (e.g., cysteine) on proteins. As an engineered, non-naturally occurring agent (i.e., xenobiotic), Tavocept is autocatalytic and requires no protein cofactor to cause the xenobiotic modification of cysteine, but appears to be specific for cysteine residues located within a particular structural context (i.e., not all cysteines in a protein are so modified). Tavocept-mediated, xenobiotic modification represents a novel mechanism of action for a cancer treating agent and can be compared to a degree with post-translational modifications of cysteine residues in proteins (see, Table 3, below).

human cancer cell lines = assay: Interference with paclitaxel- and platinum-induced cytotoxicity; assay type: cell-based
Source text: as §1

TrxR/Trx system = biological target: T1, TrxR/Trx system (Homo sapiens, UniProt P10599); assay: NADPH oxidation by TrxR and Trx; assay type: biochemical; conditions: increasing concentrations of the substance
T1 construct: 6xHis (N); purchased Sigma (Trx); American Diagnostica (bovine TrxR)
T1 sequence (P10599 1-105): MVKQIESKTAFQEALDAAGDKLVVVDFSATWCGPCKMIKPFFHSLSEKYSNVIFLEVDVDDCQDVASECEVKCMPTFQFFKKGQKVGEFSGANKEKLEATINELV

[2] = biological target: T2, recombinant human farnesyltransferase (Homo sapiens, UniProt P49354+P49356); assay: Farnesyltransferase Dansyl-GCVLS fluorescence assay; assay type: biochemical; conditions: 25 nM FTase, 3 μM Dansyl-GCVLS, 25° C.
T2 construct: purchased Abcam
Method: Tavocept-inhibited human farnesyltransferase-mediated transfer of farnesylpyrophosphate to the cysteine residue in a danyslated peptide substrate of sequence glycine-cysteine-valine-leucine-serine (designated-Dansyl-GCVLS) in vitro. See, FIG. 79. The assay reactions contained 25 nM recombinant human farnesyltransferase (Abcam), 10 μM farnesylpyrophosphate (SigmaAldrich), 3 μM Dansyl-GCVLS (NeoBioScience) in Tris buffer (50 mM, pH 7.5) containing 5 mM MgCl2, 10 μM ZnCl2, and 0.2% octyl-β-D-glucopyranoside. Total assay volumes were 50 μL and the reactions were initiated by the addition of FTase (5 μL of 250 nM stock was added to 45 μL of assay components listed above). The excitation wavelength was 340 nm (a 340 nm filter with 25 nm bandpass) and the emission wavelength was […] (505 nm filter with 20 nm bandpass) and the assay temperature was 25° C. Progress curves of the transfer of the farnesylpyrophosphate to the Dansyl-GCVLS substrate are shown in FIG. 79, Panel A and relative rates of the progress curve were determined and are shown in FIG. 79, Panel B.

[3] = biological target: T3, Anaplastic Lymphoma Kinase (ALK) (Homo sapiens, UniProt Q9UM73); assay: ALK kinase activity (summary Table 27); assay type: biochemical
T3 construct: illustrates the kinase domain of ALK (residues 1058-1623) which was used in these experiments; purchased Millipore; host or cells: Sf21 insect cells (baculovirus)

[4] = biological target: T4, Mesenchymal Epithelial Transition (MET) Factor Kinase (Homo sapiens, UniProt P08581); assay: MET kinase inhibition (summary Table 27); assay type: biochemical; conditions: modification of non-active site cysteine(s)
T4 construct: the kinase domain of MET (residues 956-end) was used in these experiments; purchased SignalChem M52-18G-10; host or cells: Sf9 insect cells

Peroxiredoxin (Prx) = biological target: T5, Peroxiredoxin (Prx) (Homo sapiens, UniProt Q06830); assay: Peroxiredoxin activity (summary Table 27); assay type: biochemical; conditions: disrupts active site structure
T5 construct: purchased SigmaAldrich

Recombinant human Trx = biological target: T6, Recombinant human Trx (Homo sapiens, UniProt P10599); assay: Native PAGE of Trx incubated with Tavocept; assay type: binding; design: purchased Sigma (SigmaAldrich); host or cells: E. coli; conditions: Tavocept 10 mM, 37° C., 0-48 hours
T6 sequence (P10599 1-105): T1 sequence (P10599 1-105)
Method: (§2) Recombinant human Trx (1.5 mg, SigmaAldrich) was reduced using a vast excess of DTT (50 mM) in Tris buffer (100 mM, pH 8.0) at 37° C. for 50 minutes. […] (final reactions volumes were approximately 160 μL). At time selected times (0-48 hours), aliquots were removed and subjected to TrisGlycine Native or TrisGlycine SDS PAGE analysis. Gels were fixed in acetic acid/methanol and stained with Coomassie R-250.
as §2, with “mg)” for “mg, SigmaAldrich)”, “incubation reaction” for “reactions”

T4 sequence (P08581 956-1390 limits assumed): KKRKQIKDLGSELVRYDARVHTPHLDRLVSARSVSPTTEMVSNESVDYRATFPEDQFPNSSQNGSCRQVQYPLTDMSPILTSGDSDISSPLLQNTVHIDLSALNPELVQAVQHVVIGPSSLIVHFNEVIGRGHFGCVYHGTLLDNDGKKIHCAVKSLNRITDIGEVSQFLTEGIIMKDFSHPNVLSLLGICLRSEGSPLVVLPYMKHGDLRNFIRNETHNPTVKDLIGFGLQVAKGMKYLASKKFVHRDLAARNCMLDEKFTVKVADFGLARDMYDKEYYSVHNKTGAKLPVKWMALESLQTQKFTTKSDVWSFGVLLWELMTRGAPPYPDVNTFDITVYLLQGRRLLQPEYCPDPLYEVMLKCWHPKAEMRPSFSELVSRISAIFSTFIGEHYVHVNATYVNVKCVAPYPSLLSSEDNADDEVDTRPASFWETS
T5 sequence (Q06830 whole entry): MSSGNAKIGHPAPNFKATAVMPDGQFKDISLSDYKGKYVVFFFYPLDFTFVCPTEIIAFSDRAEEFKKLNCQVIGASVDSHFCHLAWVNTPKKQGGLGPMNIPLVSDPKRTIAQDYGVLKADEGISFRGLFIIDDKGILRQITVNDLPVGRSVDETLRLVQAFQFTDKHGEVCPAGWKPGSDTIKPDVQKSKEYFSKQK
T3 sequence (Q9UM73 1058-1620 limits assumed): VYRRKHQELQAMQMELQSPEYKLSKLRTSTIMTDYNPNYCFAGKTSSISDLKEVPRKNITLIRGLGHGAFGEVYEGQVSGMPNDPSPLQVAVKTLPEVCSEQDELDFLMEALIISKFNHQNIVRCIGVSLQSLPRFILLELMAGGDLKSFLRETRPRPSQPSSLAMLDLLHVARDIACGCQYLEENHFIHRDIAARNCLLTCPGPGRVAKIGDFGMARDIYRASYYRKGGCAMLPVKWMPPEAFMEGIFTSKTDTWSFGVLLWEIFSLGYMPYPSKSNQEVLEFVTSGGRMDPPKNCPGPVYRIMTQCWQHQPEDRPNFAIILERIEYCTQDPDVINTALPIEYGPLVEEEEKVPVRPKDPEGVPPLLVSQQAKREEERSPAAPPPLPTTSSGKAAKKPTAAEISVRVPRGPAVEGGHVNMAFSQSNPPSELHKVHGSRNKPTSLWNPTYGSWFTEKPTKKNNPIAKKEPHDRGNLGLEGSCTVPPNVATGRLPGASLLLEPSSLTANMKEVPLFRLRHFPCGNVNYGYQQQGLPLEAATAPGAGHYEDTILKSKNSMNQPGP
T2 sequence (P49356 whole entry, one chain of several): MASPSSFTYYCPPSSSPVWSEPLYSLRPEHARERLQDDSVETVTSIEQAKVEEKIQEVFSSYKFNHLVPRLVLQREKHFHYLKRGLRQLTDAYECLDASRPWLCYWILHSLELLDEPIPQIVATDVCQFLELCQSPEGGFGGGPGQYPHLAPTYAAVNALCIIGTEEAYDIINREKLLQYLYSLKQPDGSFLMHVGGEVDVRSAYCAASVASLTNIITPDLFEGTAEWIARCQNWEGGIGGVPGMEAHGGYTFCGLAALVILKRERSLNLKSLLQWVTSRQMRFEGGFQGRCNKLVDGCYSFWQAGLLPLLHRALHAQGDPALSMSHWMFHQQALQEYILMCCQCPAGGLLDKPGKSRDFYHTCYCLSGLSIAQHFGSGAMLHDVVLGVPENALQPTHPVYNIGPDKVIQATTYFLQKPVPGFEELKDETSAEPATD

O=S(=O)([O-])CCSSCCS(=O)(=O)[O-].[Na+].[Na+] [Tavocept, disodium 2,2′-dithio-bis-ethane sulfonate]
interference with paclitaxel induced apoptosis [1]: does not interfere
interference with paclitaxel- and platinum-induced cytotoxicity (human cancer cell lines): not to interfere
NADPH oxidation by TrxR and Trx (TrxR/Trx system): increases
Inhibition of farnesylation [2]: inhibits farnesylation in a concentration-dependent manner
Effect on ALK kinase activity [3]: resulting in inhibition of ALK kinase
Effect on MET [4]: resulting in enzyme inhibition (MET).
Effect on Prx (Peroxiredoxin (Prx)): resulting in impaired enzyme activity
Tris-glycine native gel electrophoresis profile of Trx (Recombinant human Trx): altered Tris-glycine native gel electrophoresis profile
